The target of one assay is Human HDAC8 (Homo sapiens (Human), UniProt Q9BY41). The experiment in a line: Caliper endpoint assay for HDAC8 enzymatic activity. In kind it is biochemical. Conditions: in vitro enzymatic.
The target of another assay is Human HDAC6 (Homo sapiens (Human), UniProt Q9UBN7). Briefly: HDAC6 enzymatic activity assay (Caliper endpoint or fluorogenic format). In kind it is biochemical. As to conditions: for IC50: in vitro enzymatic; for Selectivity (6 v 8) (fold): ratio of HDAC8 IC50/HDAC6 IC50.
Chain of Human HDAC6 (Q9UBN7 whole entry): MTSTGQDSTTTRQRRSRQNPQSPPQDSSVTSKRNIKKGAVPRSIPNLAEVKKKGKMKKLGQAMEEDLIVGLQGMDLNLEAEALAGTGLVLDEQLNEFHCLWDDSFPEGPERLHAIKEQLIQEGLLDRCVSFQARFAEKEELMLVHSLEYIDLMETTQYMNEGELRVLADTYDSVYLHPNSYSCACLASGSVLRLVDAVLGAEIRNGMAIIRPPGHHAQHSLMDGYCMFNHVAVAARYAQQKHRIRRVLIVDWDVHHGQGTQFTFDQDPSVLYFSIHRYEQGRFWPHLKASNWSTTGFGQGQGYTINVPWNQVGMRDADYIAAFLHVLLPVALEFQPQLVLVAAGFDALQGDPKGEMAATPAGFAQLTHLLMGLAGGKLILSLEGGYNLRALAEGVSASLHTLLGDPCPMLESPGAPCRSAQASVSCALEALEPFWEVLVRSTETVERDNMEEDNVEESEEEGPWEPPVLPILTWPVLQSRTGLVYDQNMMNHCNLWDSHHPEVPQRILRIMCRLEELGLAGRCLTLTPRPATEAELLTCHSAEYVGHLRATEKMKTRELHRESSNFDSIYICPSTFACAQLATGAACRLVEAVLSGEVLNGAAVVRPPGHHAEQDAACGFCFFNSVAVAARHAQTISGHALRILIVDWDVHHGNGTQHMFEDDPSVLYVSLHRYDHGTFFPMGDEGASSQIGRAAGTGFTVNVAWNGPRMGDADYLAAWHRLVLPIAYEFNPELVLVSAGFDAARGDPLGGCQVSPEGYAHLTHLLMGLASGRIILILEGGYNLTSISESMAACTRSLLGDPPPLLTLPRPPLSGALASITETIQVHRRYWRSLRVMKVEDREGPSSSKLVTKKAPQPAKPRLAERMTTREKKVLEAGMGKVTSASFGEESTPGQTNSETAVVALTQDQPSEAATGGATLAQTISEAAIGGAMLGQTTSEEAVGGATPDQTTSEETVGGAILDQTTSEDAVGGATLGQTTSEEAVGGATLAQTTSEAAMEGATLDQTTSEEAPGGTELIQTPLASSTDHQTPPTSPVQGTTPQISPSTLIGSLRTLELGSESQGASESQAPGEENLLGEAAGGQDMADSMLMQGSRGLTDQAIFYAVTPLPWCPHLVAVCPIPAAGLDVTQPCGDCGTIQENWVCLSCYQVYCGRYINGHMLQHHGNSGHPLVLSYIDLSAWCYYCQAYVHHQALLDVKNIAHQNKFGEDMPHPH

Chain of Human HDAC8 (Q9BY41 whole entry): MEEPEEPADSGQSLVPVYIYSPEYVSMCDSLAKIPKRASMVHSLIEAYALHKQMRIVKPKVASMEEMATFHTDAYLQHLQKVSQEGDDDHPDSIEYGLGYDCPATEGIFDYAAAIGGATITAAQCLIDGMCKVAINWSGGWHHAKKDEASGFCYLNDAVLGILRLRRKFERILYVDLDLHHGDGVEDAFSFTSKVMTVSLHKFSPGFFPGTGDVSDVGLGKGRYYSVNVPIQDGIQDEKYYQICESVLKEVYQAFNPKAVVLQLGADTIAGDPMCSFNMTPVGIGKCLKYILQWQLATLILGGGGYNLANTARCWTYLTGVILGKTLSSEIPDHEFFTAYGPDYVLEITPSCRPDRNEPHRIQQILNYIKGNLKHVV

For `N#Cc1ccc(OCc2ccc(-c3nnc(C(F)F)o3)cn2)c(F)c1` [Compound 47], the IC50 against Human HDAC8 is 10000 to 100000 nM. At Human HDAC6, the IC50 lay in the range of 1 to 100 nM and the “Selectivity (6 v 8) (fold)” value is on record as “V (V: >1000)”.
As to `Cc1noc2cc(OCc3ccc(-c4nnc(C(F)F)o4)cn3)ccc12` [Compound 59], on Human HDAC8, the half-inhibitory concentration (IC50) was over 100000 nM. At Human HDAC6, the IC50 was 1 to 100 nM and the “Selectivity (6 v 8) (fold)” value is “V (V: >1000)”.
On the same counts, the results for `Cc1cccc(OCc2ccc(-c3nnc(C(F)F)o3)cn2)n1` [Compound 72] are over 100000 nM, 100 to 1000 nM and “V (V: >1000)”.
As to `Cc1nc2cc(OCc3ccc(-c4nnc(C(F)F)o4)cn3)ccc2o1` [Compound 61], the IC50 on Human HDAC8 fell in the range of 10000 to 100000 nM. Besides, at Human HDAC6, the half-inhibitory concentration (IC50) fell in the range of 1 to 100 nM and the “Selectivity (6 v 8) (fold)” value is “IV (IV: >100-1000)”.
On the same counts, the results for `NC(=O)c1ccc(OCc2ccc(-c3nnc(C(F)F)o3)cn2)cc1` [Compound 122, 4-((5-(5-(difluoromethyl)-1,3,4-oxadiazol-2-yl)pyridin-2-yl)methoxy)benzamide] are over 100000 nM, over 100000 nM and “V (V: >1000)”.
On the same counts, the results for `N#Cc1ccc(OCc2ccc(-c3nnc(C(F)F)o3)cn2)cc1` [Compound 118, 4-((5-(5-(difluoromethyl)-1,3,4-oxadiazol-2-yl)pyridin-2-yl)methoxy)benzonitrile] are 10000 to 100000 nM, 1 to 100 nM and “V (V: >1000)”.
Taken in the same sequence, the figures for `C#Cc1cccc(OCc2ccc(-c3nnc(C(F)F)o3)cn2)c1` [Compound 39] were over 100000 nM, 1 to 100 nM and “V (V: >1000)”.
Take `FC(F)c1nnc(-c2ccc(COc3cccc4nccnc34)nc2)o1` [Compound 55]: the IC50 against Human HDAC8 is over 100000 nM; against Human HDAC6 it was 1 to 100 nM. Besides, at Human HDAC6, the “Selectivity (6 v 8) (fold)” value is “V (V: >1000)”.
Taken in the same sequence, the figures for `Fc1cc(Cl)ccc1OCc1ccc(-c2nnc(C(F)F)o2)cn1` [Compound 3, 2-(6-((4-chloro-2-fluorophenoxy)methyl)pyridin-3-yl)-5-(difluoromethyl)-1,3,4-oxadiazole] were over 100000 nM, 1 to 100 nM and “V (V: >1000)”.
On the same counts, the results for `Fc1ccc(Cl)cc1OCc1ccc(-c2nnc(C(F)F)o2)cn1` [Compound 2, 2-(6-((5-chloro-2-fluorophenoxy)methyl)pyridin-3-yl)-5-(difluoromethyl)-1,3,4-oxadiazole] are over 100000 nM, 1 to 100 nM and “V (V: >1000)”.
Taken in the same sequence, the figures for `Fc1ccc(OC(F)(F)c2ccc(-c3nnc(C(F)F)o3)cn2)cc1` [Compound 15, 2-(6-(difluoro(4-fluorophenoxy)methyl)pyridin-3-yl)-5-(difluoromethyl)-1,3,4-oxadiazole] were over 100000 nM, 100 to 1000 nM and “V (V: >1000)”.
On to `FC(F)c1nnc(-c2ccc(COc3cncc4ccccc34)nc2)o1` [Compound 88], for which the half-inhibitory concentration (IC50) on Human HDAC8 was in the range of 10000 to 100000 nM. For the same compound, at Human HDAC6, the half-inhibitory concentration (IC50) was in the range of 1 to 100 nM and the “Selectivity (6 v 8) (fold)” value is recorded as “V (V: >1000)”.
On the same counts, the results for `Fc1cnc(OCc2ccc(-c3nnc(C(F)F)o3)cn2)nc1` [Compound 106] are over 100000 nM, 100 to 1000 nM and “V (V: >1000)”.
Taken in the same sequence, the figures for `FC(F)c1nnc(-c2ccc(COc3cncc(C(F)(F)F)c3)nc2)o1` [Compound 93] were over 100000 nM, 1 to 100 nM and “V (V: >1000)”.
`FC(F)c1nnc(-c2ccc(COc3ccc(C4CC4)nn3)nc2)o1` [Compound 83] returned an IC50 against Human HDAC8 of 10000 to 100000 nM. Besides, on Human HDAC6, the IC50 was in the range of 100 to 1000 nM and the “Selectivity (6 v 8) (fold)” value is on record as “IV (IV: >100-1000)”.
Taken in the same sequence, the figures for `FC(F)c1nnc(-c2ccc(COc3ccc4cnccc4c3)nc2)o1` [Compound 32] were 10000 to 100000 nM, 1 to 100 nM and “V (V: >1000)”.

Values taken from patent US20230322747A1, “OXADIAZOLE HDAC6 INHIBITORS AND USES THEREOF” (Eikonizo Therapeutics, Inc., priority 2022, published 2023).
